{"source": "patent US20110111016A1", "about": "“NON-DNA BASE-CONTAINING POLYNUCLEOTIDE COMPOSITIONS AND THEIR USE FOR THE MODULATION OF IMMUNE RESPONSES” (priority 2009, published 2011)", "key": {"human TLR3": {"molecular_target": "T1, human TLR3 (Homo sapiens, UniProt O15455)", "T1 construct": "host or cells: HEK293", "T1 sequence (O15455 24-904)": "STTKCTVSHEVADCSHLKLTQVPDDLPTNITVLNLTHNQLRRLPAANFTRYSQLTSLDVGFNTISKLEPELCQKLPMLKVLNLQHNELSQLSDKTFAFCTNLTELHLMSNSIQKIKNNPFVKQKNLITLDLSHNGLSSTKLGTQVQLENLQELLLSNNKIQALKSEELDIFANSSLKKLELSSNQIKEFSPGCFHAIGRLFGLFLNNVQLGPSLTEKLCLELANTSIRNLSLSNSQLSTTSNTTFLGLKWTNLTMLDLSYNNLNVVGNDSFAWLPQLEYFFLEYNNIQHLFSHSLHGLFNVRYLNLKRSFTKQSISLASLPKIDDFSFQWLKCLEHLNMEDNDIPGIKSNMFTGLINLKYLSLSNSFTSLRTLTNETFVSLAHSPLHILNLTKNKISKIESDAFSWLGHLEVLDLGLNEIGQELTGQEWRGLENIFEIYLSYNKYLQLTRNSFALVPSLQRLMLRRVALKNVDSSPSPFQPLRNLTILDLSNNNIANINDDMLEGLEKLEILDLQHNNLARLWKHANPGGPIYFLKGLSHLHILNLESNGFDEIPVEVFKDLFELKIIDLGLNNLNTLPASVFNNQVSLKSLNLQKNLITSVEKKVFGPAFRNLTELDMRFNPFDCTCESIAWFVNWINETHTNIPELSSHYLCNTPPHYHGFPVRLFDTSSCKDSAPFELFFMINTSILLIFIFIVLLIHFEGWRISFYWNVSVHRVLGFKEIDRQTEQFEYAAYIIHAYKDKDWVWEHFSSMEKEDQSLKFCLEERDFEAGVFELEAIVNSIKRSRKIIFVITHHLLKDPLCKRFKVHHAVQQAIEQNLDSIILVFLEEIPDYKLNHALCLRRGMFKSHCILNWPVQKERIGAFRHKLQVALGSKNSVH", "test": "NF-κB activation (secreted alkaline phosphatase reporter) in HEK293 cells expressing human TLR3", "assay_type": "cell-based", "settings": "HEK293/hTLR3 cell line; polynucleotide final concentration 10 μg/mL; 16-20 hours", "protocol": "(§1) Toll-like receptors (TLR) are known to interact with a number of natural and synthetic molecules that can function as immune adjuvants. Examples of these molecules are Poly (I:C) polynucleotides, lipopolysaccharide and CpG-containing polynucleotides. The interaction of non-DNA base-containing polynucleotides (SEQ ID NOs: 1-3) to interact with TLR and induce down-stream signaling was tested by assessing NF-κB activation in HEK293 cells expressing human TLR2, 3, 4, 5, 7, 8 and 9. TLR engagement was determined by measurement of secreted alkaline phosphatase, under the control of a reporter inducible by NF-κB. Appropriate positive controls were used for each TLR. The non-DNA base-containing polynucleotides were dissolved in sterile water at a concentration of 100 μg/mL, and used at a final concentration of 10 μg/mL. HEK293 cells containing the appropriate TLR and NF-κB reporting system (InvivoGen, San Diego, Calif., USA) were placed in wells of 96 well plates (25,000-50,000 cells, in a final volume of 200 μL medium designed for the detection of NF-κB induced secreted alkaline phosphatase expression), and incubated with non-DNA base-containing polynucleotides or positive controls for 16-20 hours. TLR activating activity was determined by measurement of absorbance at 650 nm wavelength using a Coulter AD340C absorbance detector. The results shown are expressed as Optical Density (OD)."}, "human TLR7": {"molecular_target": "T2, human TLR7 (Homo sapiens, UniProt Q9NYK1)", "T2 construct": "host or cells: HEK293", "T2 sequence (Q9NYK1 27-1049)": "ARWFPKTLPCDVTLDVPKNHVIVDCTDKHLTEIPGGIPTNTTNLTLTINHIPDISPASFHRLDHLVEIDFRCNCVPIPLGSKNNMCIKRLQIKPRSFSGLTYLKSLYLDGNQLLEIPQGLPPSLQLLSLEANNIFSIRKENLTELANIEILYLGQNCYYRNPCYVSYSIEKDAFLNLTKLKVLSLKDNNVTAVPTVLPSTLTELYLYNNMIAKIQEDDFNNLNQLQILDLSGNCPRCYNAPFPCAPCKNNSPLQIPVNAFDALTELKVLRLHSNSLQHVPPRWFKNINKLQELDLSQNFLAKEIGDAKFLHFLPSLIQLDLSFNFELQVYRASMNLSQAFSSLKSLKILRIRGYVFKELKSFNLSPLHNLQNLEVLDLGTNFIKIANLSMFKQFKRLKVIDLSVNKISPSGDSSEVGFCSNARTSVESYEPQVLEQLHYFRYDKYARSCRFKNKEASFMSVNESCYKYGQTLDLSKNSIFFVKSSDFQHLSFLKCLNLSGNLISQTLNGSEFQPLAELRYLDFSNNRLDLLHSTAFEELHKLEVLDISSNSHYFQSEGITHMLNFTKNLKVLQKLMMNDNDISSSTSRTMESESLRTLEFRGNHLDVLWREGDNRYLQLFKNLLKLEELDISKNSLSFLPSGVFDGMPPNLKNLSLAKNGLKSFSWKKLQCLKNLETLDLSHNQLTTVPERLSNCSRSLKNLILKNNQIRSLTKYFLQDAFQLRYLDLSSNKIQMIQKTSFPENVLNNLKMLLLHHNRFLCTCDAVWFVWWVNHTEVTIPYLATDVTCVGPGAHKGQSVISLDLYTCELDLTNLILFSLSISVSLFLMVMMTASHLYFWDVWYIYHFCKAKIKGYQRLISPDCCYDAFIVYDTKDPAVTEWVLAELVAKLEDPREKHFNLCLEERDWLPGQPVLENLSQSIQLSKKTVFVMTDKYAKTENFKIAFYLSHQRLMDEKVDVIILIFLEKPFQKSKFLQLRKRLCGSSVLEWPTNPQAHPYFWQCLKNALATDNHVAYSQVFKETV", "test": "NF-κB activation (secreted alkaline phosphatase reporter) in HEK293 cells expressing human TLR7", "assay_type": "cell-based", "settings": "HEK293/TLR7 cell line; polynucleotide final concentration 10 μg/mL; 16-20 hours", "protocol": "as §1, with “The interaction of non-DNA base-containing polynucleotides (SEQ ID NOs: 1-3) to interact with TLR and induce down-stream signaling was tested by assessing NF-κB activation in HEK293 cells expressing human TLR2, 3, 4, 5, 7, 8 and 9.” left out"}}}
{"substance": "IIGTII [SEQ ID NO: 3]", "values": [{"measurement": "TLR activation, Optical Density at 650 nm, hTLR3", "setting": "human TLR3", "value": 0.057}, {"measurement": "TLR activation, Optical Density at 650 nm, hHTR7", "setting": "human TLR7", "value": 0.093}]}
{"substance": "NebGGTGNeb (DNA NGGTGN; Nebularine at both ends, sugar and linkages not given here, further chemistry not given here) [SEQ ID NO: 1, 5′-OH, 3′-OH non-DNA base-containing polynucleotide]", "values": [{"measurement": "TLR activation, Optical Density at 650 nm, hTLR3", "setting": "human TLR3", "value": 0.055}, {"measurement": "TLR activation, Optical Density at 650 nm, hHTR7", "setting": "human TLR7", "value": 0.097}]}
{"substance": "UUGTUU [SEQ ID NO: 2]", "values": [{"measurement": "TLR activation, Optical Density at 650 nm, hTLR3", "setting": "human TLR3", "value": 0.056}, {"measurement": "TLR activation, Optical Density at 650 nm, hHTR7", "setting": "human TLR7", "value": 0.090}]}
